Source: US8343543B2, “Lipase inhibiting composition” (Hoffmann-La Roche Inc., priority 2001, dated 2013)

Experiment: Orlistat transfer into oil in vitro
Type: physicochemical
Conditions: after 10 min
Experimental: Orlistat (4 mg) suspensions stabilized by sucroseesters (2 mg) were transferred into 5 ml of a 10% oil in water emulsion (pH value 4.5; oil components: olive oil and cream respectively). The dispersion underwent end-over end mixing for a desired period of time. The oil phase was separated by cold centrifugation and the orlistat content in the oil phase was determined by HPLC. For comparison, an adequate experiment was also performed with a suspension of XENICAL® brand of orlistat-containing pharmaceutical composition. L-1695, P-1670, S-1670, O-1570 are commercial sucroseesters (Sucroselaurate, Sucrosepalmitate, Sucrosestearate, Sucroseoleate respectively) from Mitsubishi-Kagaku Foods, Japan.

With `CCCCCCCCCCC[C@@H](C[C@@H]1OC(=O)[C@H]1CCCCCC)OC(=O)[C@H](CC(C)C)NC=O` [orlistat] the “transfer into olive oil, times more efficient than transfer into cream” value was 7.
